Columns and labels:
Type in all cases: biochemical
tPA = biological target: T1, tPA (Homo sapiens, UniProt P00750); test: colorimetric enzyme inhibition assay, tPA (N-methylsulfonyl-D-Phe-Gly-Arg-pNA); conditions: from IC50 by Cheng-Prusoff; n.a. = not active, <80% inhibition at 20 µM
T1 construct: purchased Sigma Aldrich
Procedure: (§1) The inhibitory activity of the synthesized compounds towards the respective main- and off-target proteases was measured via fluorometric and colorimetric assays. Thus, fluorogenic AMC- or colorimetric pNA-based substrates with a peptide sequence suitable for the tested protease were utilized (see Supplementary Figure S2). At first, the compounds were screened against […] proteases (uPA, TMPRSS2, matriptase, tPA, thrombin, factor Xa) at 20 µM, and a cut-off value of 80% inhibition at this concentration was set, for the differentiation between nonactive (n.a.) and active inhibitors. Due to the reversible inhibition mechanism of the ketobenzothiazole derivates, the IC50 values were determined with Graphpad Prism 9, and afterwards converted to the corresponding Ki values for an adequate comparison between the inhibitory activities of the compounds toward all tested proteases. The Ki values were calculated using the Cheng–Prusoff equation [43].
(§2) Fluorometric inhibition assays
(§3) The inhibitory activities of the compounds against the proteases were determined by enzyme inhibition assays with fluorogenic or colorimetry-based substrates. The fluorescence, caused by cleaved AMC from the fluorogenic substrates (uPA, matriptase, TMPRSS2, thrombin), was measured in white flat-bottom 96-well plates from Greiner Bio-One using a Tecan Infinite F200 Pro plate reader. The absorption, caused by cleaved pNA from colorimetric substrates (factor Xa and tPA), was measured in transparent flat-bottom 96-well plates from Greiner Bio-One using a Tecan Spark 10M plate reader. All measurements with the main-target proteases (uPA and TMRPSS2) were performed as triplicates and with the off-target proteases (matriptase, factor Xa, tPA, thrombin) as duplicates. The substrates and the compounds were prepared as stock solutions in DMSO. Each well contained a total volume of 200 µL, consisting of 185 µL buffer, 5 µL inhibitor in DMSO or pure DMSO as negative control, 5 µL substrate in DMSO and 5 µL enzyme solution in buffer. Dilution series were prepared for the determination of the inhibition constants. The fluorescence signal and absorbance were measured every 30 s for 10 min at 25 or 37 °C with the corresponding excitation/emission (λex = 380 nm / λem = 460 nm) and absorbance (λabs = 405 nm) wavelengths, depending on the targeted protease. IC50 values for the reversible inhibitors were calculated with Graphpad Prism 9 by fitting the remaining enzymatic activity to the four parameter IC50 equation with Y [%] as the residual enzyme activity , Ymax as the maximum value of the dose response curve at inhibitor concentrations [I] = 0 µM, Ymin as the minimum value at high inhibitor concentrations and s as the hill coefficient.[1] The fluorescence progress curves and sigmoidal dose-response curve for inhibition of uPa by compound 38 is shown exemplary in Figure S2. […]
(§4) Due to the dependence of the IC50 value on the substrate affinity and concentration, the Ki values were calculated with the Cheng-Prusoff equation, using the final substrate concentration [S] and the Michaelis-Menten constant KM, (2) for appropriate comparison of the inhibitory activities to the other enzymes and inhibitors.[1]
(§5) KM values were determined by fitting to the Michaelis-Menten equation using Graphpad Prism 9 with v [ΔF/min] as the substrate hydrolysis rate, vmax as the maximum slope of the dose-response curve, and the substrate [S] concentration.[1] The different substrates were serially diluted in DMSO. […]

uPA = biological target: T2, uPA (Homo sapiens, UniProt P00749); test: fluorometric enzyme inhibition assay, uPA (Z-Gly-Gly-Arg-AMC); conditions: from IC50 by Cheng-Prusoff; n.a. = not active, <80% inhibition at 20 µM
T2 construct: purchased Sigma Aldrich
Procedure: as §1, §2
The inhibitory activities of the compounds against the proteases were determined by enzyme inhibition assays with fluorogenic or colorimetry-based substrates. The fluorescence, caused by cleaved AMC from the fluorogenic substrates (uPA, matriptase, TMPRSS2, thrombin), was measured in white flat-bottom 96-well plates from Greiner Bio-One using a Tecan Infinite F200 Pro plate reader. The absorption, caused by cleaved pNA from colorimetric substrates (factor Xa and tPA), was measured in transparent flat-bottom 96-well plates from Greiner Bio-One using a Tecan Spark 10M plate reader. All measurements with the main-target proteases (uPA and TMRPSS2) were performed as triplicates and with the off-target proteases (matriptase, factor Xa, tPA, thrombin) as duplicates. The substrates and the compounds were prepared as stock solutions in DMSO. Each well contained a total volume of 200 µL, consisting of 185 µL buffer, 5 µL inhibitor in DMSO or pure DMSO as negative control, 5 µL substrate in DMSO and 5 µL enzyme solution in buffer. Dilution series were prepared for the determination of the inhibition constants. The fluorescence signal and absorbance were measured every 30 s for 10 min at 25 or 37 °C with the corresponding excitation/emission (λex = 380 nm / λem = 460 nm) and absorbance (λabs = 405 nm) wavelengths, depending on the targeted protease. IC50 values for the reversible inhibitors were calculated with Graphpad Prism 9 by fitting the remaining enzymatic activity to the four parameter IC50 equation with Y [%] as the residual enzyme activity , Ymax as the maximum value of the dose response curve at inhibitor concentrations [I] = 0 µM, Ymin as the minimum value at high inhibitor concentrations and s as the hill coefficient.[1] The fluorescence progress curves and sigmoidal dose-response curve for inhibition of uPa by compound 38 is shown exemplary in Figure S2.
Figure S2: (left) Fluorescence progress curves for inhibition of uPa by cpd. 38. (right) Plot showing the respective IC50 value […]
as §4
as §5, with “DMSO. The measurement was done in analogy to the determination of the inhibitory activity, but with 5 µL pure DMSO instead of inhibitor solution. The fluorescence progress curves and Michaelis-Menten curve of the specific substrate of uPA is shown exemplarily” for “DMSO.”
Figure S3: (left) Fluorescence progress curves of cleavage of Z-Gly-Gly-Arg-AMC by uPA. (right) Michaelis-Menten curve […]

factor Xa = biological target: T3, factor Xa (Homo sapiens, UniProt P00742); test: colorimetric enzyme inhibition assay, factor Xa (Z-D-Arg-Gly-Arg-pNA); conditions: for Ki: from IC50 by Cheng-Prusoff, n.a. = not active, <80% inhibition at 20 µM; for Selectivity index [SI] Factor Xa: quotient Ki factor Xa / Ki uPA
T3 construct: purchased Bio-techne
T3 sequence (P00742 235-488 limits assumed): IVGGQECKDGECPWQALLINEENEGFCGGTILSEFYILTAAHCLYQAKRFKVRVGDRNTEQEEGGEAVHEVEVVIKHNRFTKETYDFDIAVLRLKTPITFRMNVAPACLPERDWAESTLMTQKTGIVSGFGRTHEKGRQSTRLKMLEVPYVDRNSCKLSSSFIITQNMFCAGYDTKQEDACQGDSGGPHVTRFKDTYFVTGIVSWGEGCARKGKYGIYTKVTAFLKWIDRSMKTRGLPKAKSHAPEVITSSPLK
T3 sequence (P00742 41-179 partner limits assumed): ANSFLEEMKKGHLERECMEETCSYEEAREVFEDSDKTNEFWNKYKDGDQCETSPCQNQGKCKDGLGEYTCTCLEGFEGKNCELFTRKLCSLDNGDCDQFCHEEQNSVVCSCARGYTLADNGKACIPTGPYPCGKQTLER
Procedure: as §1, §2, §3, §4
as §5, with “DMSO. The measurement was done in analogy to the determination of the inhibitory activity, but with 5 µL pure DMSO instead of inhibitor solution.” for “DMSO.”
(§6) The following buffers and substrates were used for the respective assays: uPA (50 mM Tris HCl pH = 7.9, 150 mM […]
(§7) TMPRSS2 (25 mM Tris HCl pH = 8.0, 150 mM NaCl, 5 mM CaCl2, 0.001% TX-100, 100 µM Boc-Gln-Ala-Arg-AMC (KM: 68.63 ± 6.64 µM), 25 °C, 3 nM TMPRSS2)[3]; matriptase (50 mM Tris HCl pH = 8.0, 150 mM NaCl, 5 mM CaCl2, […]

TMPRSS2 = biological target: T4, TMPRSS2 (Homo sapiens, UniProt O15393); test: fluorometric enzyme inhibition assay, TMPRSS2 (Boc-Gln-Ala-Arg-AMC); conditions: for Ki: from IC50 by Cheng-Prusoff, n.a. = not active, <80% inhibition at 20 µM; for Selectivity index [SI] TMPRSS2: quotient Ki TMPRSS2 / Ki uPA
T4 construct: purchased Cusabio
T4 sequence (O15393 whole entry): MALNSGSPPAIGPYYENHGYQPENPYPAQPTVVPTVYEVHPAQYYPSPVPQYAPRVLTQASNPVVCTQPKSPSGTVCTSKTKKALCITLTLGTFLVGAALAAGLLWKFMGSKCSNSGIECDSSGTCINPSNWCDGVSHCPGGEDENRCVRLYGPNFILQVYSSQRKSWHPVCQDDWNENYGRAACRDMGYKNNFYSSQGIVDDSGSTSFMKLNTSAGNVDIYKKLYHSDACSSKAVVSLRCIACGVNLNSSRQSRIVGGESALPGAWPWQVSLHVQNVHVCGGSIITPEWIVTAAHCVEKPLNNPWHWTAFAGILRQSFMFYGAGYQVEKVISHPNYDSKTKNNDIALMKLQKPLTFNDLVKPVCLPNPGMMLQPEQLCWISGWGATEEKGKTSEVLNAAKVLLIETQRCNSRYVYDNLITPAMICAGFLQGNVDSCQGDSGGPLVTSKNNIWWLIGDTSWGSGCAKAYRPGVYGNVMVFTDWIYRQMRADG
Procedure: as §1, §2, §3, §4
as §5, with “DMSO. The measurement was done in analogy to the determination of the inhibitory activity, but with 5 µL pure DMSO instead of inhibitor solution.” for “DMSO.”
as §6, §7

matriptase = biological target: T5, matriptase (Homo sapiens, UniProt Q9Y5Y6); test: fluorometric enzyme inhibition assay, matriptase (Boc-Leu-Arg-Arg-AMC); conditions: for Ki: from IC50 by Cheng-Prusoff, n.a. = not active, <80% inhibition at 20 µM; for Selectivity index [SI] Matriptase: quotient Ki matriptase / Ki uPA
T5 construct: catalytic domain of matriptase (uniport: Q9Y5Y6 aa 596–855); hexa-histidine (N); made in house; host or cells: Escherichia coli BL21 Gold (DE3)
T5 sequence (Q9Y5Y6 596-855): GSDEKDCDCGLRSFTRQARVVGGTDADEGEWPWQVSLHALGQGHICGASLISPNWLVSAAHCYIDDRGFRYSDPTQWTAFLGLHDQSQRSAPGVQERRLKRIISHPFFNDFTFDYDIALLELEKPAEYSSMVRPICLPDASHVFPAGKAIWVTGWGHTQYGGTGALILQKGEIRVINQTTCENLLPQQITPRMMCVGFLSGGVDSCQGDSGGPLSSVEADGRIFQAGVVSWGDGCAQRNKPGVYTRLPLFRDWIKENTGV
Procedure: as §1, §2, §3, §4
as §5, with “DMSO. The measurement was done in analogy to the determination of the inhibitory activity, but with 5 µL pure DMSO instead of inhibitor solution.” for “DMSO.”
as §6, §7

thrombin = biological target: T6, thrombin (Homo sapiens, UniProt P00734); test: fluorometric enzyme inhibition assay, thrombin (Z-Gly-Gly-Arg-AMC); conditions: for Ki: from IC50 by Cheng-Prusoff, n.a. = not active, <80% inhibition at 20 µM; for Selectivity index [SI] Thrombin: quotient Ki thrombin / Ki uPA
T6 construct: purchased Bio-techne
Procedure: as §1, §2, §3, §4
as §5, with “DMSO. The measurement was done in analogy to the determination of the inhibitory activity, but with 5 µL pure DMSO instead of inhibitor solution.” for “DMSO.”
as §6, §7

T1 sequence (P00750 36-562): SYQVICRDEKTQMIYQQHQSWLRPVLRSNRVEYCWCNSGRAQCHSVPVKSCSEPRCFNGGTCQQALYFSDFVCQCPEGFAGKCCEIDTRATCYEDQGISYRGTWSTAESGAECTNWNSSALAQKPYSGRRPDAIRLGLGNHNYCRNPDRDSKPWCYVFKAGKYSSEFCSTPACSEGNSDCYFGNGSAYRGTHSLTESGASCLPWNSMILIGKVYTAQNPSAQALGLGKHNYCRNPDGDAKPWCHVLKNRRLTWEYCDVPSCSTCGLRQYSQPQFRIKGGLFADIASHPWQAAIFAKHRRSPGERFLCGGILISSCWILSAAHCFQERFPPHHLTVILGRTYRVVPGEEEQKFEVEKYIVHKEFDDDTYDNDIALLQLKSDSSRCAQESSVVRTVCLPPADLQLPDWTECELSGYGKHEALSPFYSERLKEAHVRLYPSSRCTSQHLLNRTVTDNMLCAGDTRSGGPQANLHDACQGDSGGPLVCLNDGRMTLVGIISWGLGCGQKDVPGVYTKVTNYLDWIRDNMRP

SMILES	Ki tPA (tPA)	Ki (uPA)	Ki (factor Xa)	Ki (TMPRSS2)	Selectivity index [SI] TMPRSS2 (TMPRSS2)	Ki (matriptase)	Selectivity index [SI] Matriptase (matriptase)	Ki (thrombin)	Selectivity index [SI] Thrombin (thrombin)	Selectivity index [SI] Factor Xa (factor Xa)
CC(=O)NCC(=O)NC(C(=O)NC(C)C(=O)NC(CCCNC(=N)N)C(=O)c1nc2ccccc2s1)C(C)O [Compound 14a, Ac-Gly-L-Thr-L-Ala-L-Arg-kbt]	did not show inhibition	141 ± 28 nM	3360 ± 320 nM	5 ± 1 nM	0.04	32 ± 14 nM	0.2	4390 ± 1480 nM	31	
CC(=O)NCC(=O)NC(C(=O)NC(C)C(=O)NC(CCCNC(=N)N)C(=O)c1nc2ccc(F)cc2s1)C(C)O (stereo not drawn) [Compound 14b]		388 ± 95 nM								
CC(=O)NCC(=O)NC(C(=O)NC(C)C(=O)NC(CCCNC(=N)N)C(=O)c1nc2ccc(Cl)cc2s1)C(C)O (stereo not drawn) [Compound 14c]		82 ± 6 nM	2450 ± 99 nM	9 ± 1 nM	0.1	59 ± 9 nM	0.7	456 ± 72 nM	5	30
CC(=O)NCC(=O)NC(C(=O)NC(C)C(=O)NC(CCCNC(=N)N)C(=O)c1nc2ccc(Br)cc2s1)C(C)O (stereo not drawn) [Compound 14d]		60 ± 15 nM	2850 ± 844 nM	6 ± 1 nM	0.1	38 ± 2 nM	0.6	450 ± 69 nM	8	47
COc1ccc2nc(C(=O)C(CCCNC(=N)N)NC(=O)C(C)NC(=O)C(NC(=O)CNC(C)=O)C(C)O)sc2c1 (stereo not drawn) [Compound 14e]		178 ± 19 nM								
CC(=O)NCC(=O)NC(C(=O)NC(C)C(=O)NC(CCCNC(=N)N)C(=O)c1nc2c(s1)CCCC2)C(C)O (stereo not drawn) [Compound 15]		435 ± 33 nM								
